# Data taken from patent US20090036496A1, “Treatment of Stress Urinary Incontinence and Mixed Urinary Incontinence” (UROGENE, priority 2005, published 2009).
# Tests used:
# [1] = system: alpha1-adrenergic receptors; experiment: Contraction of isolated rabbit urethra rings by activation of alpha1-adrenergic receptors; conditions: for contraction of the urethra induced by the compound itself: cumulative concentrations 0.01 to 100 μM, relative to norepinephrine 30 μM
# Protocol: The compounds were tested in ex vivo experiments carried out on rabbit urethra.
# The tests were carried out on isolates of rabbit urethra which were obtained as follows.
# The whole urethra was excised and washed in order to remove the adipose and connective tissues, and then cut into rings approximately 4 mm in diameter, one at the median level, the other at the distal level of the urethra.
# In this trial, the ability of each of the four compounds mentioned above to induce, by themselves, a contraction of the urethra by activation of the alpha1-adrenergic receptors, compared with norepinephrine used as a positive control, is measured.
# The protocol followed is an adaptation of the protocol described by Van der Graaf et al. (Eur. J. Pharmacol., 327: 25-32, 1997).
# Krebs-Henseleit solution was modified by adding propanolol (1 μM), normetanephrin (1 μM), desipramine (0.1 μM) and deoxycorticosterone (3 μM) in order to block the beta-adrenergic receptors, catechol-O-methyltransferase and the uptake of noradrenalin type 1 (neuronal) and 2 (extraneuronal), respectively.
# An initial force of 1 g is applied to the samples. After a period of 60 minutes of equilibration, the rings are brought into contact with norepinephrine (30 μM), twice consecutively, separated by washing for 60 minutes. The rings that have a contractile response of less than 1 g are discarded and new rings are optionally prepared. After washing for 30 minutes, the compound tested is added at cumulative concentrations ranging from 0.01 to 100 μM. In parallel, the solvent of the compound (distilled water or DMSO) is tested thereon so as to obtain a control curve.
# In the case of HP748, an additional experiment was carried out in which prazosin (1 μM), an alpha1-adrenergic receptor antagonist, was incubated for 30 minutes before the addition of HP748.
# The results are expressed as percentage of the contraction induced by the second addition of norepinephrine at 30 μM as a function of the concentration of the compound. The latter is represented on a logarithmic scale, by the logarithm of the value in mol/l.
# [2] = system: female New Zealand white rabbits; experiment: Continuous cystometry under irritated bladder conditions (0.5% acetic acid infusion); format: in vivo, rabbit; conditions: for bladder capacity: p<0.01
# Protocol: (§1) The effects of cumulative doses of HP749 (0, 1, 3 and 5 mg/kg i.v.), or duloxetine (0, 1 and 2 mg/kg i.v.) on the electromyographic and cystometric parameters were evaluated in anaesthetized female New Zealand white rabbits (n=12/group) under irritated conditions (continuous transvesical infusion of 0.5% acetic acid). The study was performed in accordance with the ethical standards of the Helsinki declaration.
# Continuous cystometry was performed with the animal supine using a subcutaneous cystostomy. A T tube was connected to the multiperforable plug using a 20-gauge needle, online with a TRA021 pressure transducer and a micro-injection pump. Room-temperature diluted acetic acid was infused into the bladder at a rate of 1.4 ml/hr to elicit repetitive voidings, which allowed collection of data for a large number of voiding cycles. Continuous cystometry was recorded on a PowerLab 4/25.
# (§2) At the beginning of the cystometry the bladder was emptied. The liquid infusion to stabilize the cyclic voidings was maintained at least for 60 minutes, continuously recording the cystometrogram. Then, placebo was intravenously administered, and the cystometrogram was recorded for other 40 minutes. Consecutive doses of duloxetine or HP749 were then administered with an interval of 40 minutes.
# (§3) An intravenous cannula was connected to the ear vein for vehicle (saline) or drug administration. The drugs were freshly prepared before each experiment in saline. Drugs were administered intravenously in a volume of 1 ml. followed by 1 ml. flush of physiological saline.
# (§4) All values were expressed as the mean±SEM. Duloxetine or HP749 effects were analyzed and compared with control (saline) values using Wilcoxon rank test. Mann-Whitney U test was performed to compare the effects of duloxetine and HP-749. Statistical significance was considered at p<0.05.
# [3] = system: female New Zealand white rabbits; experiment: Electromyography of striated sphincter (SS-EMG) under irritated bladder conditions; format: in vivo, rabbit
# Protocol: as §1, §2
# Two electrodes (30-gauge needle) were placed percutaneously into the striated anal sphincter approximately 5-10 mm. lateral to the anus. […] SS-EMG was continuously recorded during the cystometry.
# as §3, §4
smiles,measurement,setting,value
"Cc1cn(Nc2ccncc2F)c2ccccc12 [HP183, reference compound]",contraction of the urethra induced by the compound itself,[1],no effect
"CCCN(c1ccncc1F)n1cc(C)c2ccccc21 [HP184, reference compound]",contraction of the urethra induced by the compound itself,[1],no effect
"c1ccc2c(c1)ccn2Nc1ccncc1 [HP748, N-(4-pyridinyl)-1H-indol-1-amine]",contraction of the urethra induced by the compound itself,[1],induces a significant contraction
same,contraction of the urethra after preincubation with prazosin,[1]; preincubation with 1 μM of prazosin for 30 minutes,completely blocked
"CCCN(c1ccncc1)n1ccc2ccccc21 [HP749, N-propyl-N-(4-pyridinyl)-1H-indol-1-amine]",contraction of the urethra induced by the compound itself,[1],no effect
same,bladder capacity,[2]; 1 mg/kg i.v.,172 % of the control
same,bladder capacity,[2]; 5 mg/kg i.v.,235 % of the control
same,effect on bladder capacity compared with duloxetine,"[2]; Mann-Whitney U test, p<0.05",significantly higher than those of duloxetine
same,effect on SS-EMG compared with duloxetine,"[3]; Mann-Whitney U test, p<0.05",significantly higher than those of duloxetine
same,SS-EMG increase,"[3]; all doses tested (1, 3 and 5 mg/kg i.v.), p<0.01",2.5 fold
"CNCC[C@H](Oc1cccc2ccccc12)c1cccs1 [duloxetine, reference compound]",bladder capacity,[2]; duloxetine 1 and 2 mg/kg i.v. cumulative,increased dose-dependently
same,SS-EMG activity,"[3]; 2 mg./kg i.v., p<0.01",significantly increased
